Data from PubChem BioAssay AID248 (DTP/NCI, 2004).
Values joined by “and” are separate entries in the source; they are usually repeats but may differ in a detail not shown here. Identical values can stand only once. Toxic doses and inconclusive results are not listed.

System: L1210 leukemia ip in BDF1 mice, survival T/C
Assay: NCI In Vivo Anticancer Drug Screen. Data for tumor model L1210 Leukemia (intraperitoneal) in B6D2F1 (BDF1) mice
Conditions: endpoint: mean survival time, higher = longer survival
How it was run: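 Tumor was transplanted into mice, which were then dosed with test compound or vehicle alone. Survival was recorded for each group, and the treated figure was expressed relative to the control figure.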

[1] = dose: 100.0 mg/kg/injection, schedule: Q01DX001 (ip), vehicle: saline
[2] = dose: 200.0 mg/kg/injection, schedule: Q01DX001 (ip), vehicle: saline
[3] = dose: 400.0 mg/kg/injection, schedule: Q01DX001 (ip), vehicle: saline
[4] = dose: 100.0 mg/kg/injection, schedule: Q01DX009 (ip), vehicle: saline with Tween-80
[5] = dose: 400.0 mg/kg/injection, schedule: Q01DX009 (ip), vehicle: saline with Tween-80
[6] = dose: 200.0 mg/kg/injection, schedule: Q04DX002 (ip), vehicle: Klucel (hydroxypropylcellulose) (HPC)
[7] = dose: 400.0 mg/kg/injection, schedule: Q04DX002 (ip), vehicle: Klucel (hydroxypropylcellulose) (HPC)

Structure (SMILES): CC(C)NCC(=O)c1ccc(O)c(O)c1
- T/C (dose: 20.0 mg/kg/injection, schedule: Q01DX Z (ip), vehicle: saline): 98 % of control
- T/C (dose: 20.0 mg/kg/injection, schedule: Q#A X Z (ip), vehicle: methylcellulose (MC)): 96 % of control
- T/C (dose: 25.0 mg/kg/injection, schedule: Q01DX Z (ip), vehicle: carboxymethylcellulose (CMC)): 107 % of control
- T/C (dose: 25.0 mg/kg/injection, schedule: Q03DX Z (ip), vehicle: carboxymethylcellulose (CMC)): 93 % of control
- T/C (dose: 29.0 mg/kg/injection, schedule: Q03HX024 (ip), vehicle: saline): 95 % of control
- T/C (dose: 31.0 mg/kg/injection, schedule: Q01DX Z (ip), vehicle: carboxymethylcellulose (CMC)): 106 % of control
- T/C (dose: 40.0 mg/kg/injection, schedule: Q01DX Z (ip), vehicle: saline): 107 % of control and 89 % of control
- T/C (dose: 43.0 mg/kg/injection, schedule: Q03HX024 (ip), vehicle: saline): 104 % of control
- T/C (dose: 49.0 mg/kg/injection, schedule: Q01DX Z (ip), vehicle: saline): 122 % of control
- T/C (dose: 50.0 mg/kg/injection, schedule: Q01DX001 (ip), vehicle: saline): 96 % of control
- T/C (dose: 50.0 mg/kg/injection, schedule: Q01DX Z (ip), vehicle: carboxymethylcellulose (CMC)): 104 % of control
- T/C (dose: 50.0 mg/kg/injection, schedule: Q03DX Z (ip), vehicle: carboxymethylcellulose (CMC)): 93 % of control
- T/C (dose: 59.0 mg/kg/injection, schedule: Q04DX003 (ip), vehicle: saline): 94 % of control
- T/C (dose: 62.0 mg/kg/injection, schedule: Q01DX Z (ip), vehicle: carboxymethylcellulose (CMC)): 119 % of control
- T/C (dose: 64.0 mg/kg/injection, schedule: Q03HX024 (ip), vehicle: saline): 105 % of control
- T/C (dose: 80.0 mg/kg/injection, schedule: Q01DX Z (ip), vehicle: saline): 97 % of control and 119 % of control
- T/C (dose: 88.0 mg/kg/injection, schedule: Q04DX003 (ip), vehicle: saline): 100 % of control
- T/C (dose: 96.0 mg/kg/injection, schedule: Q03HX024 (ip), vehicle: saline): 106 % of control
- T/C [1]: 107 % of control
- T/C (dose: 100.0 mg/kg/injection, schedule: Q01DX009 (ip), vehicle: saline): 104 % of control
- T/C (dose: 100.0 mg/kg/injection, schedule: Q01DX Z (ip), vehicle: carboxymethylcellulose (CMC)): 115 % of control
- T/C (dose: 100.0 mg/kg/injection, schedule: Q03DX Z (ip), vehicle: carboxymethylcellulose (CMC)): 100 % of control
- T/C (dose: 100.0 mg/kg/injection, schedule: Q04DX003 (ip), vehicle: saline): 103 % of control
- T/C (dose: 120.0 mg/kg/injection, schedule: Q03DX Z (ip), vehicle: methylcellulose (MC)): 102 % of control
- T/C (dose: 125.0 mg/kg/injection, schedule: Q01DX Z (ip), vehicle: carboxymethylcellulose (CMC)): 105 % of control
- T/C (dose: 131.0 mg/kg/injection, schedule: Q04DX003 (ip), vehicle: saline): 98 % of control
- T/C (dose: 143.0 mg/kg/injection, schedule: Q01DX009 (ip), vehicle: saline): 114 % of control
- T/C (dose: 143.0 mg/kg/injection, schedule: Q03HX024 (ip), vehicle: saline): 101 % of control and 118 % of control
- T/C (dose: 160.0 mg/kg/injection, schedule: Q01DX Z (ip), vehicle: saline): 104 % of control and 121 % of control
- T/C (dose: 196.0 mg/kg/injection, schedule: Q04DX003 (ip), vehicle: saline): 104 % of control
- T/C [2]: 107 % of control
- T/C (dose: 200.0 mg/kg/injection, schedule: Q01DX009 (ip), vehicle: saline): 115 % of control
- T/C (dose: 200.0 mg/kg/injection, schedule: Q03DX Z (ip), vehicle: carboxymethylcellulose (CMC)): 100 % of control
- T/C (dose: 200.0 mg/kg/injection, schedule: Q04DX003 (ip), vehicle: saline): 109 % of control
- T/C (dose: 210.0 mg/kg/injection, schedule: Q01DX009 (ip), vehicle: saline): 184 % of control
- T/C (dose: 210.0 mg/kg/injection, schedule: Q03HX024 (ip), vehicle: saline): 116 % of control
- T/C (dose: 240.0 mg/kg/injection, schedule: Q03DX Z (ip), vehicle: methylcellulose (MC)): 113 % of control
- T/C (dose: 288.0 mg/kg/injection, schedule: Q01DX001 (ip), vehicle: saline): 102 % of control
- T/C (dose: 288.0 mg/kg/injection, schedule: Q04DX003 (ip), vehicle: saline): 154 % of control
- T/C (dose: 320.0 mg/kg/injection, schedule: Q01DX009 (ip), vehicle: saline): 104 % of control
- T/C (dose: 320.0 mg/kg/injection, schedule: Q03HX024 (ip), vehicle: saline): 111 % of control
- T/C [3]: 107 % of control
- T/C (dose: 400.0 mg/kg/injection, schedule: Q01DX009 (ip), vehicle: saline): 107 % of control
- T/C (dose: 400.0 mg/kg/injection, schedule: Q01DX Z (ip), vehicle: carboxymethylcellulose (CMC)): 111 % of control
- T/C (dose: 400.0 mg/kg/injection, schedule: Q03DX Z (ip), vehicle: carboxymethylcellulose (CMC)): 114 % of control
- T/C (dose: 400.0 mg/kg/injection, schedule: Q04DX003 (ip), vehicle: saline): 104 % of control
- T/C (dose: 430.0 mg/kg/injection, schedule: Q04DX003 (ip), vehicle: saline): 103 % of control
- T/C (dose: 478.0 mg/kg/injection, schedule: Q01DX009 (ip), vehicle: saline): 116 % of control
- T/C (dose: 480.0 mg/kg/injection, schedule: Q03DX Z (ip), vehicle: methylcellulose (MC)): 102 % of control

Structure (SMILES): CC(C)(CO)N=Cc1ccccc1Br
- T/C [1]: 110 % of control
- T/C [2]: 98 % of control
- T/C [3]: 90 % of control

Structure (SMILES): CCOC(=O)c1c(N)cc(=O)[nH]c1O
- T/C (dose: 75.0 mg/kg/injection, schedule: Q01DX001 (ip), vehicle: saline): 101 % of control
- T/C (dose: 150.0 mg/kg/injection, schedule: Q01DX001 (ip), vehicle: saline): 98 % of control
- T/C (dose: 300.0 mg/kg/injection, schedule: Q01DX001 (ip), vehicle: saline): 95 % of control

Structure (SMILES): COc1ccc(CCNC(=O)CCN2C(=O)c3ccccc3C2=O)cc1OC
- T/C [4]: 115 % of control
- T/C (dose: 100.0 mg/kg/injection, schedule: Q04DX003 (ip), vehicle: saline with Tween-80): 97 % of control
- T/C (dose: 200.0 mg/kg/injection, schedule: Q01DX009 (ip), vehicle: saline with Tween-80): 115 % of control
- T/C (dose: 200.0 mg/kg/injection, schedule: Q04DX003 (ip), vehicle: saline with Tween-80): 100 % of control
- T/C [5]: 113 % of control
- T/C (dose: 400.0 mg/kg/injection, schedule: Q04DX003 (ip), vehicle: saline with Tween-80): 112 % of control

Structure (SMILES): COc1ccc(NC(=O)C(CC(C(C)=O)C(=O)Nc2ccc(OC)cc2)C(C)=O)cc1 (stereo not drawn)
- T/C [4]: 87 % of control
- T/C [5]: 88 % of control

Structure (SMILES): Cn1c(CO)nc2c1c(=O)[nH]c(=O)n2C
- T/C (dose: 100.0 mg/kg/injection, schedule: Q01DX001 (ip), vehicle: other): 98 % of control
- T/C (dose: 200.0 mg/kg/injection, schedule: Q01DX001 (ip), vehicle: other): 98 % of control
- T/C (dose: 400.0 mg/kg/injection, schedule: Q01DX001 (ip), vehicle: other): 95 % of control

Structure (SMILES): CC1(C)CN(CCC#N)C(c2ccc([N+](=O)[O-])cc2)O1 (stereo not drawn)
- T/C (dose: 50.0 mg/kg/injection, schedule: Q01DX001 (ip), vehicle: carboxymethylcellulose (CMC)): 106 % of control
- T/C (dose: 100.0 mg/kg/injection, schedule: Q01DX001 (ip), vehicle: carboxymethylcellulose (CMC)): 106 % of control
- T/C (dose: 200.0 mg/kg/injection, schedule: Q01DX001 (ip), vehicle: carboxymethylcellulose (CMC)): 114 % of control
- T/C (dose: 400.0 mg/kg/injection, schedule: Q01DX001 (ip), vehicle: carboxymethylcellulose (CMC)): 108 % of control

Structure (SMILES): O=[N+]([O-])c1ccc(/C=N/c2oc(-c3ccc([N+](=O)[O-])cc3)nc2Sc2ccccc2)cc1
- T/C (dose: 25.0 mg/kg/injection, schedule: Q04DX002 (ip), vehicle: Klucel (hydroxypropylcellulose) (HPC)): 106 % of control
- T/C [6]: 96 % of control and 97 % of control and 92 % of control
- T/C [7]: 96 % of control

Structure (SMILES): O=C(O)CCn1c(=O)n(CCC(=O)O)c(=O)n(CCC(=O)O)c1=O
- T/C (dose: 100.0 mg/kg/injection, schedule: Q04DX002 (ip), vehicle: Klucel (hydroxypropylcellulose) (HPC)): 100 % of control
- T/C [6]: 93 % of control
- T/C [7]: 86 % of control

Structure (SMILES): Nc1nc(N=Nc2ccc(O)cc2)cc(=O)[nH]1
- T/C (dose: 50.0 mg/kg/injection, schedule: Q01DX009 (ip), vehicle: other): 102 % of control
- T/C (dose: 100.0 mg/kg/injection, schedule: Q01DX009 (ip), vehicle: other): 107 % of control
- T/C (dose: 100.0 mg/kg/injection, schedule: Q04DX002 (ip), vehicle: other): 105 % of control
- T/C (dose: 200.0 mg/kg/injection, schedule: Q01DX009 (ip), vehicle: other): 94 % of control
- T/C (dose: 200.0 mg/kg/injection, schedule: Q04DX002 (ip), vehicle: other): 105 % of control
- T/C (dose: 400.0 mg/kg/injection, schedule: Q01DX009 (ip), vehicle: other): 103 % of control
- T/C (dose: 400.0 mg/kg/injection, schedule: Q04DX002 (ip), vehicle: other): 99 % of control
